# Legend:
# [1] = Human plasma protein binding (PPB) assay, equilibrium dialysis; format: in vitro ADME; conditions: non-diluted plasma, pH 7.4, percentage of plasma protein bounded compound, 5 hours dialysis, read-out: hPPB
# Description: In an embodiment, human plasma protein binding (PPB) assay was carried out. The assay was performed in a multiple-use 96-well dialysis unit (HTD96b dialyzer). Each individual well unit consisted of 2 chambers separated by a vertically aligned dialysis membrane of predetermined pore size (MWCO 12-14 kDa). 120 μl of non-diluted plasma spiked with the compound (1 μM, 1% final DMSO concentration) was added to one chamber and the same volume of phosphate buffer saline pH 7.4 to the other chamber. HTD96b dialyzer was covered with adhesive sealing film and incubated at 37° C. and 100 rpm orbital shaking for 5 hours. Verapamil was also evaluated in parallel as reference compound. For sample preparation, an aliquot of the content of each chamber was mixed with the same volume of the blank opposite matrix. […] Supernatants were analysed using a Shimadzu VP HPLC system with a reverse phase column, coupled with a tandem mass spectrometer API 3000 (PE Sciex). […]
# The percentage of plasma protein bounded compound and its recovery were calculated using the equations below: […]
# The percentage of plasma protein bounded compound and its recovery were calculated using the values obtained for each compound in the quantification of the 3 samples (in buffer, plasma and standard solution).
# [2] = tested on: H37Rv M. tuberculosis (strain ATCC 25618); experiment: Mycobacterium tuberculosis susceptibility assay REMA (resazurin microtiter assay); format: cell-based
# HepG2 cell line = experiment: In vitro cytotoxicity assay (MTS tetrazolium reduction); format: cell-based; conditions: HepG2, 48 h
# Description: In an embodiment, in vitro cytotoxicity assay was carried out. In vitro cytotoxicity assay was performed in HepG2 cell line using a tetrazolium reduction assay for cell viability evaluation (MTS reduction as described by Cory A. et al (Cancer Commun. 1991, 3 (7), 207-212)). The assay was performed in 96-well plates for 48 h at 37° C. and 5% CO2 in incubation medium (low glucose DMEM with Glutamax, 10% FBS, 1% Pen/Strep and DMSO). Cells were exposed to 8 different compound concentrations in successive dilutions (usually, base 2), plus a positive control (a compound in a concentration known to decrease cell viability above 50%) and a negative control (incubation medium). Six replicate wells were assayed for each condition. Compound stock solutions were prepared in DMSO at 20 mM, whenever possible, filter sterilized, aliquoted and stored at −20° C. The maximum compound concentrations tested depend on its solubility in incubation medium, and on the maximum DMSO percentage allowable without loss of cell viability. At the end of the incubation period, tetrazolium reagent was added (CellTiter 96′ AQueous Solution from Promega); cells were incubated for another 3 hours in order to promote tetrazolium reduction to formazan by viable cells. The amount of soluble formazan produced was evaluated by 490 nm absorbance reading in a spectrophotometer plate reader. […] Whenever possible, IC50 was calculated as the concentration of compound that reduces cell viability by 50%.
# [3] = Stability in human plasma (PS) assay; format: in vitro ADME; conditions: 37° C., 120 minutes, read-out: t1/2 (min) hPS
# Description: In an embodiment, stability in human plasma (PS) assay was carried out. Test compounds (1 μM, final DMSO concentration 1%) were incubated in 5 aliquots of 70 μL each (one for each time point), in duplicates, at 37° C. with 100 rpm orbital shaking. Five time points over a duration 120 minutes have been analysed. Two reference compounds were analysed in parallel. The reactions were stopped by the addition of 420 μL of acetonitrile-water mixture (90:10) and subsequent plasma proteins sedimentation were achieved by centrifugation. Supernatants were analysed in a Shimadzu VP HPLC system with a reverse phase column, coupled with a tandem mass spectrometer API 3000 (PE Sciex). Both the positive and negative ion modes of the TurbolonSpray ion source were used. Acquisition and analysis of the data were performed using Analyst 1.5.2 software (PE Sciex). The percentage of the test compounds remaining after incubation in plasma and their half-lives (T1/2) were calculated.
# [4] = Distribution coefficient (Log D) determination, octanol/PBS pH 7.4; format: physicochemical; conditions: octanol / phosphate buffer saline pH 7.4
# Description: In an embodiment, distribution coefficient (Log D) determination assay was carried out. Test compounds were incubated in Eppendorf-type polypropylene microtubes in triplicates: a 5 μL aliquot of a 10 mM DMSO stock of each test compound were added into the previously mutually saturated mixture containing 500 μL of phosphate buffer saline (pH 7.4) and 500 μL of octanol. The solution was allowed to mix in a rotator for 1 hour at 30 rpm. Phase separation was assured by centrifugation. The octanol phase was diluted 100-fold with 40% acetonitrile in water for analysis, and aqueous phase was analysed without dilution. Mebendazole was used as a reference compound. All samples (both phases) were analysed in a Shimadzu VP HPLC system with a reverse phase column, coupled with tandem mass spectrometer API 3000 (PE Sciex). The TurbolonSpray ion source was used in positive ion mode. Acquisition and analysis of the data were performed using Analyst 1.5.2 software. Distribution coefficients of the tested compounds were calculated as the logarithm of the partition ratios (D) in both solvents, according to the equation below.
# [formula] • where: So—peak area of the compound in octanol phase • Sp—peak area of the compound in phosphate buffer saline phase
# [5] = pKa determination by potentiometric titration; format: physicochemical; conditions: acidified MeOH-water (1:4) solution of NaCl, 25° C.
# Description: In an embodiment, pKa determination assay was carried out. The tendency of a compound to donate a proton is measured as its acid ionization constant (dissociation constant), or Ka. A more practical scale of representing acidity is pKa which is the negative logarithm of the Ka (pKa=−log Ka). The pKa determinations of the test compounds and 3 reference compounds were assessed by potentiometric titration, in accordance with the technical protocols for pKa measurement provided by Pion Inc. and Sirius Analytical Inc. Briefly, compounds pKa were determined by pH-metric method based on potentiometric acid-base titration at 25° C. The test and reference compounds were dissolved in acidified MeOH-water (1:4) solution of NaCl (150 mM, pH 2) and slowly titrated with 10 mM NaOH MeOH-water (1:4) solution. The recorded pH of the solution as a function of NaOH volume used during the titration were used to construct the titration curve. Titration of acidified NaCl solution in absence of any compound was used for blank plotting. Buffering capacity was calculated in each point of titration curve as the ratio of the NaOH flow (constant) to the pH rise velocity. The pKa value is determined from resulting plot of buffering capacity versus pH as the maximum of buffering capacity. pH-Metric method allows to measure pKa's in range between 2 and 12. […]
compound,measurement,setting,value
"COc1cccc2ccc(N3CCC(c4nc(-c5ccc(OC(F)(F)F)cc5)no4)CC3)nc12 [Compound 3, 5-(1-(8-methoxyquinolin-2-yl)piperidin-4-yl)-3-(4-(trifluoromethoxy)phenyl)-1,2,4-oxadiazole]","fraction unbound at 5 h, 1 μM",[1],≤ 0.001
same,MIC,"[2]; Mycobacterium tuberculosis, 144 h, read-out: REMA MIC",7.8 to 15.6 µM
same,REMA MIC,"[2]; Table 2, MTB growth REMA, H37Rv, Middlebrook 7H9, 6 days at 37° C.",+++ (7.8-15.6)
same,IC50,HepG2 cell line; Homo sapiens,> 100 µM
same,IC50,"HepG2 cell line; Table 2, cytotoxicity, MTS",> 100 µM
same,half-life at 1 μM,[3],> 240 min
same,logD,[4],5.34
same,pKa,[5],3.9

# — US20240279217A1, “Heterocyclic compounds for the treatment of tuberculosis” (TECNIMEDE - SOCIEDADE TÉCNICO-MEDICINAL, SA, priority 2021, published 2024)
